Where two headings read alike, the source gives them in different places.
What was measured:
LNCaP cells [1] = assay: WST-1 cell proliferation assay, LNCaP; type: cell-based, human; conditions: for IC50: Homo sapiens, LNCaP, 72 h, WST-1, three days of exposure, mean ± SD, n = 3; for IC50 (Silibinin)/IC50(Derivative) LNCaP: fold potency relative to silibinin
Method: (§1) The in vitro antiproliferative activities of six 7-O-substituted and 26 3-O-substituted silybin derivatives were evaluated using the WST-1 cell proliferation assay, according to the procedure as described in the Experimental Section in both androgen-sensitive (LNCaP) and androgen-insensitive (PC-3 and DU145) human prostate cancer cell lines. Silibinin and docetaxel were used as a positive control for comparison in the parallel experiments and the IC50 values calculated from the dose-response curves are summarized in Table 1. […] A three-carbon linker in 11 and 29, as well as a five-carbon linker in 31, 37 and 40, are beneficial to the potency.
(§2) All cell lines were initially purchased from American Type Culture Collection (ATCC^TM) (Manassas, VA, USA). The PC-3 and LNCaP prostate cancer cell lines were routinely cultured in RPIM-1640 medium supplemented with 10% FBS and 1% penicillin/streptomycin. The DU145 prostate cancer cells were routinely cultured in Eagle’s Minimum Essential Medium (EMEM) supplemented with 10% FBS and 1% penicillin/streptomycin. Cultures were maintained in a high humidity environment supplemented with 5% carbon dioxide at a temperature of 37 °C.
(§3) PC-3, DU145, or LNCaP cells were plated in 96-well plates at a density of 3,200 per well in 200 µL of culture medium. The cells were then separately treated with silibinin, or synthesized silibinin derivatives, at five different doses for three days, while equal treatment volumes of DMSO (0.25%) were used as the vehicle control. The cells were cultured in a CO2 incubator at 37 °C for three days. A total of 10 µL of the premixed WST-1 cell proliferation reagent (Clontech) was added to each well. After mixing gently for one min on an orbital shaker, the cells were incubated for an additional 3 h at 37 °C. To ensure a homogeneous distribution of color, it is important to mix gently on an orbital shaker for one min. The absorbance of each well was measured using a microplate reader (Synergy HT, BioTek, Winooski, VT, USA) at a wavelength of 430 nm. […] For calculating the IC50 values, a linear proliferative inhibition was made based on at least five dosages for each compound.

PC-3 cells [2] = assay: WST-1 cell proliferation assay, PC-3; type: cell-based, human; conditions: for IC50: Homo sapiens, PC-3, 72 h, WST-1, three days of exposure, mean ± SD, n = 3; for IC50 (Silibinin)/IC50(Derivative) PC-3: fold potency relative to silibinin
Method: as §1, §2, §3

DU145 cells [3] = assay: WST-1 cell proliferation assay, DU145; type: cell-based, human; conditions: for IC50: Homo sapiens, DU-145, 72 h, WST-1, three days of exposure, mean ± SD, n = 3; for IC50 (Silibinin)/IC50(Derivative) DU145: fold potency relative to silibinin
Method: as §1, §2, §3

[4] = system: prostate cancer cell models; set-up: method as in PMID 17201169, PMID 26446382, PMID 27557939, PMID 21507570; conditions: cited from earlier work
[5] = system: MCF 10A non-neoplastic human mammary epithelial cell line; assay: WST-1 cell proliferation assay, MCF 10A non-neoplastic cells; type: cell-based; conditions: Homo sapiens, MCF-10A, 72 h; WST-1, three days of exposure, mean ± SD, n = 3
Method: (§4) Silibinin and five potent derivatives (11, 29, 31, 37, and 40) were selected for further evaluation against the MCF 10A non-neoplastic human mammary epithelial cell line and PWR-1E non-neoplastic human prostate epithelial cells.
as §3

[6] = system: PWR-1E non-neoplastic human prostate epithelial cells; assay: WST-1 cell proliferation assay, PWR-1E non-neoplastic cells; type: cell-based; conditions: Homo sapiens, PWR-1E, 72 h; WST-1, three days of exposure, mean ± SD, n = 3
Method: as §4, §3

LNCaP cells [7] = conditions: WST-1, three days of exposure; cited from earlier work
DU145 cells [8] = conditions: WST-1, three days of exposure; cited from earlier work
PC-3 cells [9] = conditions: WST-1, three days of exposure; cited from earlier work

| IC50 (LNCaP cells [1]) | IC50 (Silibinin)/IC50(Derivative) LNCaP (LNCaP cells [1]) | IC50 (PC-3 cells [2]) | IC50 (Silibinin)/IC50(Derivative) PC-3 (PC-3 cells [2]) | melting point | IC50 (DU145 cells [3]) | IC50 (Silibinin)/IC50(Derivative) DU145 (DU145 cells [3]) | SMILES | IC50 [4] | IC50 [5] | IC50 [6] | IC50 (LNCaP cells [7]) | IC50 (DU145 cells [8]) | IC50 (PC-3 cells [9]) |
| --- | --- | --- | --- | --- | --- | --- | --- | --- | --- | --- | --- | --- | --- |
| 5.71 ± 2.13 µM | 8 | 26.1 ± 3.58 µM | 3 | 115 to 116 °C | 11.5 ± 2.38 µM | 8 | COc1ccc(C2Oc3cc(-c4oc5cc(OCCCBr)cc(OC)c5c(=O)c4OC)ccc3OC2CO)cc1OC (centres unmarked) [Compound 8, 7-O-(3′-bromo)propyl-3,5,20-O-trimethyl-2,3-dehydrosilybin] |  |  |  |  |  |  |
| 43.7 ± 10.9 µM |  | 72.7 ± 3.15 µM |  |  | 93.3 ± 13.7 µM |  | COc1cc(C2Oc3cc([C@H]4Oc5cc(O)cc(O)c5C(=O)[C@@H]4O)ccc3OC2CO)ccc1O (some centres unmarked) [Silibinin, reference compound] | 40 to 106 µM | 23.8 ± 0.96 µM | 20.4 ± 4.09 µM |  |  |  |
|  | 14 |  | 8 |  |  | 8 | COc1cc(C2Oc3cc(-c4oc5cc(O)cc(O)c5c(=O)c4O)ccc3OC2CO)ccc1O (centres unmarked) [Compound 2, 2,3-dehydrosilybin] |  |  |  | 3.09 ± 1.3 µM | 11.5 ± 1.42 µM | 9.45 ± 0.56 µM |
| 12.1 ± 1.81 µM | 4 | 42.6 ± 6.61 µM | 2 | 125 to 127 °C | 39.6 ± 9.49 µM | 2 | CNCCCOc1cc(OC)c2c(=O)c(OC)c(-c3ccc4c(c3)OC(c3ccc(OC)c(OC)c3)C(CO)O4)oc2c1 (centres unmarked) [Compound 9, 7-O-(N-Methylaminopropyl)-3,5,20-O-trimethyl-2,3-dehydrosilybin] |  |  |  |  |  |  |

Reference: article PMC6320956, “O-Aminoalkyl-O-Trimethyl-2,3-Dehydrosilybins: Synthesis and In Vitro Effects Towards Prostate Cancer Cells” (Molecules, 2018)
